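Where inhibition never reached the appropriate level, the endpoint shown equals the highest concentration tested. Otherwise, values were interpolated linearly from a five-concentration, 48-hour dose response in 96-well plates. GI50 is the concentration that inhibits growth by half. TGI marks complete inhibition of growth.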
What was measured:
Assay in all cases: inhibition of tumour cell growth, NCI panel, 48 h
[1] = tested on: OVCAR-8 ovarian
[2] = tested on: SK-MEL-28 melanoma
[3] = tested on: OVCAR-4 ovarian
[4] = tested on: SN12C renal
[5] = tested on: SK-MEL-5 melanoma
[6] = tested on: MCF7 breast
[7] = tested on: CCRF-CEM leukemia
[8] = tested on: U251 CNS
[9] = tested on: MDA-N
[10] = tested on: SF-539 CNS
[11] = tested on: MDA-MB-231 breast
[12] = tested on: MDA-MB-435
[13] = tested on: BT-549 breast
[14] = tested on: NCI/ADR-RES ovarian
[15] = tested on: SNB-75 CNS
[16] = tested on: SK-MEL-2 melanoma
[17] = tested on: UO-31 renal

## Cc1cc2nc(N3C(=O)/C(=C/c4ccccc4S)N=C3c3ccccc3)sc2cc1C
[1]
  TGI: > 100 µM
[2]
  TGI: > 100 µM
[3]
  TGI: > 100 µM
[4]
  TGI: 82.6 µM
[5]
  TGI: > 100 µM
[6]
  TGI: > 100 µM
[7]
  TGI: 46.6 µM
[8]
  TGI: > 100 µM
[9]
  TGI: 39.1 µM
[10]
  TGI: > 100 µM
[11]
  TGI: 86 µM
[12]
  TGI: 95.9 µM
[13]
  TGI: > 100 µM
[14]
  TGI: 92.3 µM
[15]
  TGI: > 100 µM
[16]
  TGI: 56.7 µM
[17]
  TGI: > 100 µM

## CCOc1cc2c(cc1O)CC[C@@H]1[C@@H]2CC[C@]2(C)C(N)CC[C@@H]12 (some centres not stated)
[1]
  TGI: 11.2 µM
[2]
  TGI: 23.6 µM
[3]
  TGI: 58.7 µM
[4]
  TGI: 20.5 µM
[5]
  TGI: 16.7 µM
[6]
  TGI: 28.1 µM
[7]
  TGI: 18.2 µM
[8]
  TGI: 9.37 µM
[9]
  TGI: 3.6 µM
[10]
  TGI: 9.25 µM
[11]
  TGI: 5.56 µM
[12]
  TGI: 3.96 µM
[13]
  TGI: 30.8 µM
[14]
  TGI: 8.98 µM
[15]
  TGI: 6.48 µM
[16]
  TGI: 21.3 µM
[17]
  TGI: 16.2 µM

## CC(C)(C)OC(=O)NC(CCC(=O)OCc1ccccc1)C(=O)NCCCO (configuration not stated)
[1]
  TGI: > 100 µM
[2]
  TGI: > 100 µM
[3]
  TGI: > 100 µM
[4]
  TGI: > 100 µM
[5]
  TGI: > 100 µM
[6]
  TGI: > 100 µM
[7]
  TGI: > 100 µM
[8]
  TGI: > 100 µM
[9]
  TGI: > 100 µM
[10]
  TGI: > 100 µM
[11]
  TGI: > 100 µM
[12]
  TGI: > 100 µM
[13]
  TGI: > 100 µM
[14]
  TGI: > 100 µM
[15]
  TGI: > 100 µM
[16]
  TGI: > 100 µM
[17]
  TGI: > 100 µM

## CC1=NN(C(=O)CC(=O)Nc2ccc(C)cc2)C(=O)C1N=Nc1ccc(S(=O)(=O)c2ccc(N=NC3C(=O)N(C(=O)CC(=O)Nc4ccc(C)cc4)N=C3C)cc2)cc1 (configuration not stated)
[1]
  TGI: > 100 µM
[2]
  TGI: > 100 µM
[3]
  TGI: > 100 µM
[4]
  TGI: > 100 µM
[5]
  TGI: > 100 µM
[6]
  TGI: > 100 µM
[7]
  TGI: > 100 µM
[8]
  TGI: > 100 µM
[9]
  TGI: > 100 µM
[10]
  TGI: > 100 µM
[11]
  TGI: > 100 µM
[12]
  TGI: > 100 µM
[13]
  TGI: > 100 µM
[14]
  TGI: > 100 µM
[15]
  TGI: > 100 µM
[16]
  TGI: > 100 µM
[17]
  TGI: > 100 µM

## Cc1c(F)c(N)c2c(=O)cc(-c3ccc(N)c(F)c3)oc2c1F
[1]
  TGI: 58.7 µM
[2]
  TGI: > 95.2 µM
[3]
  TGI: 48.8 µM
[4]
  TGI: 56.7 µM
[5]
  TGI: 67 µM
[6]
  TGI: 4.39 µM
[7]
  TGI: > 100 µM
[8]
  TGI: 33.1 µM
[9]
  TGI: > 89 µM
[10]
  TGI: 32.3 µM
[11]
  TGI: 46.3 µM
[12]
  TGI: > 100 µM
[13]
  TGI: 36.8 µM
[14]
  TGI: 42.4 µM
[15]
  TGI: 56.2 µM
[16]
  TGI: 81.2 µM
[17]
  TGI: 60.1 µM

## CC(=O)c1cccc(Nc2nc3ccc(Cl)cc3c3[nH]c4ccccc4c23)c1
[1]
  TGI: 32.7 µM
[2]
  GI50: 16.5 µM
  TGI: > 100 µM
[3]
  GI50: 3.56 µM
  TGI: 21.5 µM
[4]
  TGI: > 90.8 µM
[5]
  TGI: 17 µM
[6]
  TGI: > 21.9 µM
[7]
  TGI: > 100 µM
[8]
  TGI: 14.7 µM
[9]
  TGI: > 100 µM
[10]
  TGI: 30.1 µM
[11]
  TGI: 63.8 µM
[12]
  TGI: > 100 µM
[13]
  TGI: > 100 µM
[14]
  TGI: 79.5 µM
[15]
  GI50: 2.04 µM
  TGI: 8.16 µM
[16]
  TGI: 30.8 µM
[17]
  TGI: 41.9 µM

## Cc1ccc(C2SC(N)=Nc3c2c(C)nn3C(=O)c2ccccc2O)cc1 (configuration not stated)
[1]
  TGI: > 10 µM
[2]
  TGI: > 10 µM
[3]
  TGI: > 10 µM
[4]
  TGI: > 10 µM
[5]
  TGI: > 10 µM
[6]
  TGI: > 10 µM
[7]
  TGI: > 10 µM
[8]
  TGI: > 10 µM
[9]
  TGI: > 10 µM
[10]
  TGI: > 10 µM
[11]
  TGI: > 10 µM
[12]
  TGI: > 10 µM
[13]
  TGI: > 10 µM
[14]
  TGI: > 10 µM
[15]
  TGI: 7.14 µM
[16]
  TGI: > 10 µM
[17]
  TGI: > 10 µM
